# Test results taken from US7846928B2, “Substituted pyrazolopyridines and salts thereof, pharmaceutical compositions comprising same, methods of preparing same and uses of same” (Bayer Schering Pharma AG, priority 2006, dated 2010).
# Legend:
# [1] = molecular target: T1, human insuline receptor (Ins-R) kinase domain (Homo sapiens, UniProt P06213); assay: InsR HTRF assay (assay 4); format: biochemical; conditions: IC50 assay 4/IC50 assay 2
# T1 construct: GST-tagged recombinant kinase domain of the human insuline receptor; GST; purchased ProQinase, Freiburg, Germany; host or cells: SF-9 cells
# T1 sequence (P06213 1023-1298 limits assumed): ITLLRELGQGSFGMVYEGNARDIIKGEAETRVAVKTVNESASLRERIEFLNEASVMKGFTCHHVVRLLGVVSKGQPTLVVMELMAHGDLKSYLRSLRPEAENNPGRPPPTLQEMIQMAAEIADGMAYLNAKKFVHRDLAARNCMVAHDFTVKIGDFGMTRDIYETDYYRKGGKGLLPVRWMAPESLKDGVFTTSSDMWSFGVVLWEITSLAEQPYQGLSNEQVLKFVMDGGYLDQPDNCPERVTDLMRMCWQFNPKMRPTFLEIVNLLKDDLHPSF
# Description: Inhibitory activity of compounds against the kinase activity of the insulin receptor was quantified employing the Ins-R HTRF assay as described in the following paragraphs.
# GST-tagged recombinant kinase domain of the human insuline receptor (Ins-R, purchase from ProQinase, Freiburg, Germany) expressed in SF-9 cells was used as kinase. As substrate for the kinase reaction biotinylated poly-(Glu,Tyr) (Cis biointernational, France) was used.
# Ins-R was incubated for 20 min at 22° C. in the presence of different concentrations of test compounds in 5 μl assay buffer [50 mM Hepes/NaOH pH 7, 15 mM MnCl2, 1 mM dithiothreitol, 0.1 μM sodium ortho-vanadate, 0.015% (v/v) PEG20000, 10 μM adenosine-tri-phosphate (ATP), 0.3 μg/ml substrate, 1% (v/v) dimethylsulfoxide]. The concentration of Ins-R was adjusted depending of the activity of the enzyme lot and was chosen appropriate to have the assay in the linear range, typical concentrations were in the range of 10 pg/μl. The reaction was stopped by the addition of 5 μl of a solution of HTRF detection reagents (0.1 μM streptavidine-XLent and 1 nM PT66-Eu-Chelate, an europium-chelate labelled anti-phosphotyrosine antibody from Perkin Elmer) in an aqueous EDTA-solution (80 mM EDTA, 0.2% (w/v) bovine serum albumin in 50 mM HEPES/NaOH pH 7.0).
# The resulting mixture was incubated 1 h at 22° C. to allow the binding of the biotinylated phosphorylated peptide to the streptavidine-XLent and the PT66-Eu-Chelate. Subsequently the amount of phosphorylated substrate was evaluated by measurement of the resonance energy transfer from the PT66-Eu-Chelate to the streptavidine-XLent. Therefore, the fluorescence emissions at 620 nm and 665 nm after excitation at 350 nm was measured in a HTRF reader, e.g. a Rubystar (BMG Labtechnologies, Offenburg, Germany) or a Viewlux (Perkin-Elmer). The ratio of the emissions at 665 nm and at […] was taken as the measure for the amount of phosphorylated substrate. The data were normalised (enzyme reaction without inhibitor=0% inhibition, all other assay components but no enzyme=100% inhibition) and IC50 values were calculated by a 4 parameter fit using an inhouse software.
# [2] = molecular target: Tie2 (Homo sapiens, UniProt Q02763); assay: Tie2 ELISA assay (assay 1): cellular Tie2 autophosphorylation in Tie2-transfected CHO cells stimulated by angiopoietin-2; format: cell-based; design: expressed in transfected cells; host or cells: CHO (DHFR-deficient), stably transfected: CHO Tie2/DHFR; conditions: CHO Tie2/DHFR cells, Ang2 stimulated, Tie2 autophosphorylation sandwich-ELISA; pIC50 = -log IC50 molar; read-out: Tie 2 activity (assay 1)
# Sequence of Tie2 (Q02763 23-1124): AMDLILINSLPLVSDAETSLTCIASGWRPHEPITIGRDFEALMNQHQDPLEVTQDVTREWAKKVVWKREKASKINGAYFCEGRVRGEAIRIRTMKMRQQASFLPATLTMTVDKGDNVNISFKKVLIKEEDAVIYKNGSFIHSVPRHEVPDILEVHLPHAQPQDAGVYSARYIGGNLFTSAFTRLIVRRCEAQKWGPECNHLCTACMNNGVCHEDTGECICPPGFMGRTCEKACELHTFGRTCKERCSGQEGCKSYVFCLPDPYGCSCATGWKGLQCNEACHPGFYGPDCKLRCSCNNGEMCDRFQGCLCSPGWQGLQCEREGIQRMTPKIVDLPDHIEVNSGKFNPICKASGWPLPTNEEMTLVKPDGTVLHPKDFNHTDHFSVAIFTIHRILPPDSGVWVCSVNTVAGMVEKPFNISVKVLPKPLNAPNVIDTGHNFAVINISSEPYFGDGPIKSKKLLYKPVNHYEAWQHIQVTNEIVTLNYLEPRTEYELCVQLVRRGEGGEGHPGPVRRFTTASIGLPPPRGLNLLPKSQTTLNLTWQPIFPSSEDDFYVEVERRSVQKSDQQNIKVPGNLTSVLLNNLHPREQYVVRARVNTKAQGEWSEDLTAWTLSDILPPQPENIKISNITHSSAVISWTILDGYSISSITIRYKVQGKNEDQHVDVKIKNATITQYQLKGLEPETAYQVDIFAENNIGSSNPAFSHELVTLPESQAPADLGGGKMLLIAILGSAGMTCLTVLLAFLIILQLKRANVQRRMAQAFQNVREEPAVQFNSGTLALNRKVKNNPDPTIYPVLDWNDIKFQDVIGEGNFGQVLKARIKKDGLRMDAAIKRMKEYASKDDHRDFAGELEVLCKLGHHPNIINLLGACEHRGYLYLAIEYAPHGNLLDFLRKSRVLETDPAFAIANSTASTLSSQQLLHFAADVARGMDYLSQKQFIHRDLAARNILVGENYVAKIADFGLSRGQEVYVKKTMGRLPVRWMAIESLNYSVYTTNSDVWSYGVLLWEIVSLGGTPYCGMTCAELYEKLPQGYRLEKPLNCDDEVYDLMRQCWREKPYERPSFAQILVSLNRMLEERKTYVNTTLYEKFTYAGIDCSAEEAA
# Description: Cellular activity of compounds of the present invention as inhibitors of Tie2 kinase activity was measured employing a Tie2 ELISA assay as described in the following paragraphs. Herein CHO cell-cultures, which are stably transfected by known techniques with Tie2 using DHFR deficiency as selection marker, are stimulated by angiopoietin-2. The specific autophosphorylation of Tie2 receptors is quantified with a sandwich-ELISA using anti-Tie2 antibodies for catch and anti-phosphotyrosine antibodies coupled to HRP for detection.
# • 96 well tissue culture plate, sterile, Greiner • 96 well FluoroNunc plate MaxiSorp Surface C, Nunc • 96 well plate polypropylene for compound dilution in DMSO • CHO Tie2/DHFR (transfected cells) • PBS−; PBS++, DMSO • MEM alpha Medium with Glutamax-I without Ribonucleosides and • Deoxyribonucleosides (Gibco #32561-029) • with 10% FCS after dialysis! and 1% PenStrep • Lysis buffer: 1 Tablet “Complete” protease inhibitor • 1 cap Vanadate (1 mL>40 mg/mL; working solution 2 mM) • ad 50 mL with Duschl-Puffer • pH 7.6 • Anti-Tie2-antibody 1:425 in Coating Buffer pH 9.6 • Stock solution: 1.275 mg/mL>working: 3 μg/mL • PBST: 2 bottles PBS(10×)+10 ml Tween, fill up with VE-water • RotiBlock 1:10 in VE-water • Anti-Phosphotyrosine HRP-Conjugated 1:10000 in 3% TopBlock • 3% TopBlock in PBST • BM Chemiluminescence ELISA Substrate (POD) • solution B1:100 solution A • SF9 cell culture medium • Ang2-Fc in SF9 cell culture medium Cell Experiment: • Dispense 5×10^4 cells/well/98 μL in 96 well tissue culture plate • Incubate at 37° C./5% CO2 • After 24 h add compounds according to desired concentrations • Add also to control and stimulated values without compounds 2 μL DMSO • And mix for a few min at room temperature • Add 100 μL Ang2-Fc to all wells except control, which receives insect medium • Incubate 20 min at 37° C. • Wash 3× with PBS++ • Add 100 μl Lysis buffer/well and shake a couple of min at room temperature • Store lysates at 20° C. before utilizing for the ELISA Performance of Sandwich-ELISA • Coat 96 well FluoroNunc Plate MaxiSorp Surface C with anti-Tie2 mAb • 1:425 in Coating buffer pH 9.6; 100 μL/well overnight at 4° C. • Wash 2× with PBST • Block plates with 250 μL/well RotiBlock 1:10 in VE-water • Incubate for 2 h at room temperature or overnight at 4° C. shaking • Wash 2× in PBST • Add thawed lysates to wells and incubate overnight shaking at 4° C. • Wash 2× with PBST • Add 100 μL/well anti-Phosphotyrosine HRP-Conjugated 1:10000 in 3% • TopBlock (3% TopBlock in PBST) and incubate overnight under shaking • Wash 6× with PBST • Add 100 μL/well BM Chemiluminescence ELISA Substrate (POD) • solutions 1 und 2 (1:100) • Determine luminescence with the LumiCount. Assay 2: Tie-2-Kinase HTRF-Assay without Kinase Preactivation
Compound,Selectivity vs. InsR [1] [fold],IC50 [2] [µM]
"CC(C)c1cc(-c2ccc(NC(=O)Nc3cccc(C(F)(F)F)c3)cc2)c2cnn(C)c2n1 [1.3, 1-[4-(6-Isopropyl-1-methyl-1H-pyrazolo[3,4-b]pyridin-4-yl)-phenyl]-3-(3-trifluoromethyl-phenyl)-urea]",>20,< 0.501
"Cn1ncc2c(-c3ccc(NC(=O)Nc4cccc(C(F)(F)F)c4)cc3)ccnc21 [1.4, 1-[4-(1-Methyl-1H-pyrazolo[3,4-b]pyridin-4-yl)-phenyl]-3-(3-trifluoromethyl-phenyl)-urea]",>20,< 0.501
"Cc1ccc(F)c(NC(=O)Nc2ccc(-c3ccnc4c3cnn4C)cc2)c1 [1.7, 1-(2-Fluoro-5-methyl-phenyl)-3-[4-(1-methyl-1H-pyrazolo[3,4-b]pyridin-4-yl)-phenyl]-urea]",>20,< 0.501
"Cn1ncc2c(-c3ccc(NC(=O)Nc4cc(C(F)(F)F)ccc4F)cc3)ccnc21 [1.8, 1-(2-Fluoro-5-trifluoromethyl-phenyl)-3-[4-(1-methyl-1H-pyrazolo[3,4-b]-pyridin-4-yl)-phenyl]-urea]",>20,< 0.501
"CN1CCN(Cc2ccc(NC(=O)Nc3ccc(-c4cc(C(C)(C)C)nc5[nH]ncc45)cc3)cc2C(F)(F)F)CC1 [1.15, 1-[4-(6-tert-Butyl-1H-pyrazolo[3,4-b]pyridin-4-yl)-phenyl]-3-[4-(4-methyl-piperazin-1-ylmethyl)-3-trifluoromethyl-phenyl]-urea]",>20,< 0.501
"Cc1cc(-c2ccc(NC(=O)Nc3cccc(C(F)(F)F)c3)cc2)c2cn[nH]c2n1 [1.18, 1-[4-(6-Methyl-1H-pyrazolo[3,4-b]pyridin-4-yl)-phenyl]-3-(3-trifluoromethyl-phenyl)-urea]",>20,< 0.501
"CN1CCN(Cc2ccc(NC(=O)Nc3ccc(-c4ccnc5c4cnn5C)cc3)cc2C(F)(F)F)CC1 [1.24, 1-[4-(4-Methyl-piperazin-1-ylmethyl)-3-trifluoromethyl-phenyl]-3-[4-(1-methyl-1H-pyrazolo[3,4-b]pyridin-4-yl)-phenyl]-urea]",>20,< 0.501
"CN1CCN(Cc2ccc(NC(=O)Nc3ccc(-c4ccnc5[nH]ncc45)cc3)cc2C(F)(F)F)CC1 [1.33, 1-[4-(4-Methyl-piperazin-1-yl-methyl)-3-trifluoromethyl-phenyl]-3-[4-(1H-pyrazolo[3,4-b]pyridin-4-yl)-phenyl]-urea]",>20,< 0.501
"Cn1ncc2c(-c3ccc(NC(=O)Nc4cccc(C(F)(F)F)c4)cc3)cc(C3CCC3)nc21 [1.37, 1-[4-(6-Cyclobutyl-1-methyl-1H-pyrazolo[3,4-b]pyridin-4-yl)-phenyl]-3-(3-trifluoromethyl-phenyl)-urea]",>20,< 0.501
"Cn1ncc2c(-c3ccc(NC(=O)Nc4cccc(C(F)(F)F)c4)cc3)cc(C3CCCCC3)nc21 [1.38, 1-[4-(6-Cyclohexyl-1-methyl-1H-pyrazolo[3,4-b]pyridin-4-yl)-phenyl]-3-(3-trifluoromethyl-phenyl)-urea]",>20,< 0.501

# Further lines, results first:
Selectivity vs. InsR [1] [fold],IC50 [2] [µM],Compound
>20,< 0.501,"CCc1cccc(NC(=O)Nc2ccc(-c3cc(C(C)(C)C)nc4[nH]ncc34)cc2)c1 [1.1, 1-[4-(6-tert-Butyl-1H-pyrazolo[3,4-b]pyridin-4-yl)-phenyl]-3-(3-ethylphenyl)-urea]"
>20,< 0.501,"CC(C)c1cc(-c2ccc(NC(=O)Nc3cccc(C(F)(F)F)c3)cc2)c2cn[nH]c2n1 [1.2, 1-[4-(6-Isopropyl-1H-pyrazolo[3,4-b]pyridin-4-yl)-phenyl]-3-(3-trifluoromethyl-phenyl)-urea]"
>20,0.501 to 1,"Cc1cccc(NC(=O)Nc2ccc(-c3cc(C(C)(C)C)nc4[nH]ncc34)cc2)c1 [1.11, 1-[4-(6-tert-Butyl-1H-pyrazolo[3,4-b]pyridin-4-yl)-phenyl]-3-m-tolyl-urea]"
>20,< 0.501,"O=C(Nc1ccc(-c2ccnc3[nH]ncc23)cc1)Nc1cccc(C(F)(F)F)c1 [1.20, 1-[4-(1H-Pyrazolo[3,4-b]pyridin-4-yl)-phenyl]-3-(3-trifluoromethyl-phenyl)-urea]"
>20,< 0.501,"Cc1ccc(F)c(NC(=O)Nc2ccc(-c3ccnc4[nH]ncc34)cc2)c1 [1.22, 1-(2-Fluoro-5-methyl-phenyl)-3-[4-(1H-pyrazolo[3,4-b]pyridin-4-yl)-phenyl]-urea]"
>20,< 0.501,"CN1CCC(Oc2ccc(NC(=O)Nc3ccc(-c4ccnc5c4cnn5C)cc3)cc2C(F)(F)F)CC1 [1.23, 1-[4-(1-Methyl-piperidin-4-yloxy)-3-trifluoromethyl-phenyl]-3-[4-(1-methyl-1H-pyrazolo[3,4-b]pyridin-4-yl)-phenyl]-urea]"
>20,< 0.501,"CN(C)C(=O)C1(c2cc(-c3ccc(NC(=O)Nc4cccc(C(F)(F)F)c4)cc3)c3cnn(C)c3n2)CC1 [1.26, 1-(1-Methyl-4-{4-[3-(3-trifluoromethyl-phenyl)-ureido]-phenyl}-1H-pyrazolo[3,4-b]pyridin-6-yl)-cyclopropane-carboxylic acid dimethylamide]"
>20,< 0.501,"Cc1ccc(F)c(NC(=O)Nc2ccc(-c3cc(C4(C(=O)N(C)C)CC4)nc4c3cnn4C)cc2)c1 [1.29, 1-(4-{4-[3-(2-Fluoro-5-methyl-phenyl)-ureido]-phenyl}-1-methyl-1H-pyrazolo[3,4-b]pyridin-6-yl)-cyclopropane-carboxylic acid dimethylamide]"
>20,< 0.501,"Cc1cc(-c2ccc(NC(=O)Nc3cc(F)cc(C(F)(F)F)c3)cc2)c2cnn(C)c2n1 [2.4, 1-[4-(1,6-Dimethyl-1H-pyrazolo[3,4-b]pyridin-4-yl)-phenyl]-3-(3-fluoro-5-trifluoromethyl-phenyl)-urea]"
